Experimental data from patent US8518957B2, “Methanocarba adenosine derivatives, pharmaceutical compositions, and method of reducing intraocular pressure” (The United States of America, as represented by the …, priority 2009, dated 2013).
Where two headings read alike, the source gives them in different places.

What was measured:
[1] = target: T1, hA2AAR (Homo sapiens, UniProt P29274); conditions: cited from earlier work
T1 construct: expressed in transfected cells

[2] = target: T2, human A1 AR (Homo sapiens, UniProt P30542); conditions: cited from earlier work
T2 construct: expressed in transfected cells
T2 sequence (P30542 1-326): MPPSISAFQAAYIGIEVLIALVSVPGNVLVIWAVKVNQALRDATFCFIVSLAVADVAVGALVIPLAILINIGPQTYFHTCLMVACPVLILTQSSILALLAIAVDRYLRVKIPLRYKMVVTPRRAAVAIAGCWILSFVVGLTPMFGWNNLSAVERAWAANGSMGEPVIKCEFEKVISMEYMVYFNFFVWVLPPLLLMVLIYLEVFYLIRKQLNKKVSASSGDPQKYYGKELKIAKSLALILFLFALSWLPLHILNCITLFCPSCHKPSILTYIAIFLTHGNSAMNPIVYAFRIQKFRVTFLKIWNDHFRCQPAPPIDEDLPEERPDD

[3] = target: T3, human A3AR (Homo sapiens, UniProt P0DMS8); conditions: at 10 μM, relative to NECA 10 μM; values from Tosh et al.; cited from earlier work
T3 construct: expressed in transfected cells
T3 sequence (P0DMS8 1-318): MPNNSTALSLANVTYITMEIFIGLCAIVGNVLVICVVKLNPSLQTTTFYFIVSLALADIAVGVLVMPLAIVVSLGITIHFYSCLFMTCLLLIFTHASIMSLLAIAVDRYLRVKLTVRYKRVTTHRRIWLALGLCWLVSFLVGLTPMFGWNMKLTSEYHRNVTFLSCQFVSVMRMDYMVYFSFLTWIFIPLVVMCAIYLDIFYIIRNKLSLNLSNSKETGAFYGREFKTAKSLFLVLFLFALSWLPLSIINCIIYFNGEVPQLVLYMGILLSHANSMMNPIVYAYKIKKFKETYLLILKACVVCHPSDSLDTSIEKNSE

[4] = target: T3, human A3AR; assay: Cyclic AMP accumulation assay: inhibition of forskolin-stimulated cyclic AMP production in AR-transfected CHO cells; type: cell-based; conditions: at 10 μM, in comparison to the maximal effect of full agonist NECA at 10 μM
Procedure: Intracellular cyclic AMP levels were measured with a competitive protein binding method. […] CHO cells that expressed the recombinant human A3AR were harvested by trypsinization. After centrifugation and resuspended in medium, cells were planted in 24-well plates in 1.0 mL medium. After 24 h, the medium was removed and cells were washed three times with 1 mL DMEM, containing 50 mM HEPES, pH 7.4. […] After 45 min forskolin (10 μM) was added to the medium, and incubation was continued for an additional 15 min. […] The cell lysate was resuspended and stored at −20° C. For determination of cyclic AMP production, protein kinase A (PKA) was incubated with [^3H]cyclic AMP (2 nM) in K2HPO4/EDTA buffer (K2HPO4, 150 mM; EDTA, 10 mM), 20 μL of the cell lysate, and 30 μL 0.1 M HCl or 50 μL of cyclic AMP solution (0-16 pmol/200 μL for standard curve). Bound radioactivity was separated by rapid filtration through Whatman GF/C filters and washed once with cold buffer. Bound radioactivity was measured by liquid scintillation spectrometry.
Bound radioactivity was separated by rapid filtration through Whatman GF/C filters and washed the filters once with cold buffer. Bound radioactivity was measured with liquid scintillation spectrometry.

[5] = target: T3, human A3AR; assay: Radioligand binding at human A3 AR ([125I]I-AB-MECA, membranes of CHO cells)
Procedure: Test compounds were prepared as 5 mM stock solutions in DMSO and stored frozen at −20° C.
(§1) CHO cells stably expressing the recombinant hA1 and hA3Rs, and HEK-293 cells stably expressing the hA2AAR were cultured in Dulbecco's modified Eagle medium (DMEM) and F12 (1:1) supplemented with 10% fetal bovine serum, 100 units/mL penicillin, 100 μg/mL streptomycin, and […] glutamine. In addition, 800 μg/mL geneticin was added to the A2A media, while 500 μg/mL hygromycin was added to the A1 and A3 media. After harvesting, cells were homogenized and suspended in PBS. Cells were then centrifuged at 240 g for 5 min, and the pellet was resuspended in 50 mM Tris-HCl buffer (pH 7.5) containing 10 mM MgCl2. The suspension was homogenized and was then ultra-centrifuged at 14,330 g for 30 min at 4° C. The resultant pellets were resuspended in Tris buffer, incubated with adenosine deaminase (3 units/mL) for 30 min at 37° C. The suspension was homogenized with an electric homogenizer for 10 sec, pipetted into 1 mL vials and then stored at −80° C. until the binding experiments were conducted. The protein concentration was measured using the BCA Protein Assay Kit from Pierce Biotechnology, Inc. (Rockford, Ill.).
Into each tube in the binding assay was added 50 μL of increasing concentrations of the test ligand in Tris-HCl buffer (50 mM, pH 7.5) containing 10 mM MgCl2, 50 μl, of the appropriate agonist radioligand, and finally 100 μL of membrane suspension. […] For the A2AAR (20 μg/tube) the radioligand used was [^3H]37 (10 nM). […] Nonspecific binding was determined using a final concentration of 10 μM unlabeled 36 diluted with the buffer. The mixtures were incubated at 25° C. for 60 min in a shaking water bath. Binding reactions were terminated by filtration through Brandel GF/B filters under a reduced pressure using a M-24 cell harvester (Brandel, Gaithersburg, Md.). Filters were washed three times with 3 mL of 50 mM ice-cold Tris-HCl buffer (pH 7.5). […] Filters for A3AR binding were counted using a Packard Cobra II γ-counter. The Ki values were determined using GraphPad Prism for all assays.
Test compounds were prepared as 5-mM stock solutions in DMSO and stored frozen at −20° C.
(§2) Chinese hamster ovary (CHO) cells were generated by stably expressing the recombinant hA1 and hA3 and human embryonic kidney (HEK) 293 cells stably expressing the hA2AAR in DMEM and F12 (1:1) supplemented with 10% fetal bovine serum, 100 units/mL penicillin, 100 μg/mL streptomycin, and 2 μmol/mL glutamine. 800 μg/mL Geneticin were added to the A2A media and 500 μg/mL hygromycin to the A1 and A3 media. After harvesting the cells, they were homogenized with an electric homogenizer for 10 sec, pipetted them into 1-mL vials, and then stored them at −80° C. until the binding experiments were conducted. The protein concentration was measured with a BCA Protein Assay Kit from Pierce Biotechnology (Rockford, Ill.).
Each tube in the binding assay contained 50 μL of increasing concentrations of the test ligand in Tris-HCl buffer (50 mM, pH 7.5) containing 10 mM MgCl2, 50 μL of the appropriate agonist radioligand, and 100 μL membrane suspension, added sequentially. […] For the A2AAR (20 μg/tube), the radioligand [^3H]CGS21680 was used (−10 nM). […] The mixtures were incubated at 25° C. for 60 min in a shaking water bath. The binding reactions were terminated by filtration through Brandel GF/B filters under a reduced pressure with a M-24 cell harvester (Brandel, Gaithersburg, Md.). Filters were washed three times with 3 mL 50-mM ice-cold Tris-HCl buffer (pH 7.5). […] The filters were counted for A3AR binding with a Packard Cobra II γ-counter (PerkinElmer). The Ki values were determined with GraphPad Prism for all assays.

[6] = target: T1, hA2AAR; assay: Radioligand binding at human A2A AR ([3H]CGS21680, membranes of HEK-293 cells)
Procedure: (§3) [^3H](2-[p-(2-Carboxyethyl)phenyl-ethylamino]-5′-N-ethylcarboxamido-adenosine) (37, [^3H]CGS21680, 40.5 Ci/mmol) and [^125I]N^6-(4-amino-3-iodobenzyl)adenosine-5′-N-methyluronamide (38, [^125I]I-AB-MECA, 2200 Ci/mmol) were purchased from Perkin-Elmer Life and Analytical Science (Boston, Mass.). Test compounds were prepared as 5 mM stock solutions in DMSO and stored frozen at −20° C.
as §1
(§4) Into each tube in the binding assay was added 50 μL of increasing concentrations of the test ligand in Tris-HCl buffer (50 mM, pH 7.5) containing 10 mM MgCl2, 50 μl, of the appropriate agonist radioligand, and finally 100 μL of membrane suspension. For the A1AR (22 μg of protein/tube) the radioligand used was [^3H]36 (final concentration of 3.5 nM). For the A2AAR (20 μg/tube) the radioligand used was [^3H]37 (10 nM). For the A3AR (21 μg/tube) the radioligand used was [^125I]38 (0.34 nM). Nonspecific binding was determined using a final concentration of 10 μM unlabeled 36 diluted with the buffer. The mixtures were incubated at 25° C. for 60 min in a shaking water bath. Binding reactions were terminated by filtration through Brandel GF/B filters under a reduced pressure using a M-24 cell harvester (Brandel, Gaithersburg, Md.). Filters were washed three times with 3 mL of 50 mM ice-cold Tris-HCl buffer (pH 7.5). Filters for A1 and A2AAR binding were placed in scintillation vials containing 5 mL of Hydrofluor scintillation buffer and counted using a Perkin Elmer Liquid Scintillation Analyzer (Tri-Carb 2810TR). Filters for A3AR binding were counted using a Packard Cobra II γ-counter. The Ki values were determined using GraphPad Prism for all assays.
(§5) [^3H](2-[p-(2-carboxyethyl)phenyl-ethylamino]-5′-N-ethylcarboxamido-adenosine) ([^3H]CGS21680, 40.5 Ci/mmol) and [^125I]N^6-(4-amino-3-iodobenzyl)adenosine-5′-N-methyluronamide ([^125I]I-AB-MECA, 2200 Ci/mmol) were purchased from PerkinElmer. Test compounds were prepared as 5-mM stock solutions in DMSO and stored frozen at −20° C.
as §2, with “Ill.). […]” for “Ill.).”

[7] = target: T3, human A3AR; conditions: model compounds; values from Tosh et al. and Melman et al.; read-out: Affinity (Ki, nM), A3; cited from earlier work
[8] = target: T2, human A1 AR; assay: Radioligand binding at human A1 AR ([3H]NECA, membranes of CHO cells)
Procedure: as §3, §1, §4, §5
as §2, with “Ill.). […]” for “Ill.).”

[9] = inhibition of radioligand binding at 10 μM, values from Tosh et al.
[10] = at 10 μM, model compounds, values from Tosh et al. and Melman et al.
[11] = Example 7, agonist radioligand [125I]47, read-out: AR Affinity Ki, nM, A3

T1 sequence (P29274 whole entry): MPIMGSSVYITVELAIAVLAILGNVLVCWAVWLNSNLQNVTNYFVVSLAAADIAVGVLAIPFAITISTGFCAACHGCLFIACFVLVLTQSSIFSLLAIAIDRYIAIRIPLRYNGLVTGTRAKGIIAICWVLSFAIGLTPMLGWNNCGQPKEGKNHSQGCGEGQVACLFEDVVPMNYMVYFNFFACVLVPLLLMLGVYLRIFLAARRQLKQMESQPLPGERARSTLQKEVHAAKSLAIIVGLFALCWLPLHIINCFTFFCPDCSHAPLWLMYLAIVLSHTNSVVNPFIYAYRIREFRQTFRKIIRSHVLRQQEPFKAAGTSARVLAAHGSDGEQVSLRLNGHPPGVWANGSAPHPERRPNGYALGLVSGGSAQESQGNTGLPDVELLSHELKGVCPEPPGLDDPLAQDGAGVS

CNC(=O)C12CC1C(n1cnc3c(NCc4cccc(Cl)c4)nc(C#CCCC(=O)NCCNC(=O)CCCCC4SCC5NC(=O)NC54)nc31)C(O)C2O (stereo not shown) [Compound 2]
% inhibition, A2A [1, 9]: (51 ± 2%) | % inhibition, A1 [2, 9]: (1 ± 1%) | % Inhibition of cAMP formation at hA3 AR [3]: 84.5 ± 12.0%

C#CCCCC#Cc1nc(NCc2cccc(Cl)c2)c2ncn(C3C(O)C(O)C4(C(=O)NC)CC34)c2n1 (stereo not drawn) [Compound 8, (1′S, 2′R, 3′S, 4′S, 5′S)-4′-[6-(3-Chlorobenzylamino)-2-(1,6-heptadiynyl)-9H-purin-9-yl]-2′,3′-dihydroxybicyclo[3.1.0]hexane-1′-carboxylic acid N-methylamide]
% Inhibition of cAMP formation at hA3 AR [4]: 18.3 ± 7.6% | Ki ([5]; [125I]38, CHO cells, read-out: Affinity (Ki, nM), A3): 23.6 ± 3.9 nM | Ki ([6]; [3H]37, HEK293 cells, read-out: Affinity (Ki, nM), A2A): 4330 ± 500 nM

CCCC#Cc1nc(NCc2cccc(Cl)c2)c2ncn(C3C(O)C(O)C4(C(=O)NC)CC34)c2n1 (stereo not shown) [Compound 104b]
% inhibition, A2A [1, 10]: (80%)

CNC(=O)C12CC1C(n1cnc3c(NCc4cccc(C#CCCCCC(=O)NCCNC(C)=O)c4)nc(Cl)nc31)C(O)C2O (stereo not shown) [Compound 104c]
% inhibition, A2A [1, 10]: (80%) | Ki ([2]; model compounds, values from Tosh et al. and Melman et al., read-out: Affinity (Ki, nM), A1): 181 nM | Ki [7]: 228 nM

CNC(=O)[C@@]12C[C@@H]1[C@@H](n1cnc3c(NCc4cn(C56CC7CC(CC(C7)C5)C6)nn4)nc(Cl)nc31)[C@H](O)[C@@H]2O [Compound 220, (1S,2R,3S,4R,5S)-4-(2-Chloro-6-((1-(adamantyl)-1H-1,2,3-triazol-4-yl)methylamino)-9H-purin-9-yl)-2,3-dihydroxy-N-methylbicyclo[3.1.0]hexane-1-carboxamide]
Ki [5, 11]: 38.1 ± 14.4 nM | inhibition at 10 µM [8]: 38.4% | inhibition at 10 µM [6]: 4.9%

C#CCNc1nc(Cl)nc2c1ncn2[C@H]1[C@H](O)[C@H](O)[C@@H]2C[C@@H]21 [Compound 222, (1R,2R,3S,4R,5S)-4-(2-Chloro-6-(prop-2-ynylamino)-9H-purin-9-yl) bicycle[3.1.0]hexane-2,3-diol]
Ki [5, 11]: 302 ± 26 nM | Ki ([8]; Example 7, agonist radioligand [3H]45, read-out: AR Affinity Ki, nM, A1): 5870 ± 830 nM | inhibition at 10 µM [6]: 28.3%

O=[N+]([O-])c1cc(-n2cc(CNc3nc(Cl)nc4c3ncn4[C@H]3[C@H](O)[C@H](O)[C@@H]4C[C@@H]43)nn2)ccc1F [Compound 223]
Ki [5, 11]: 388 ± 170 nM | inhibition at 10 µM [8]: 44.7% | inhibition at 10 µM [6]: 19.2%

O[C@@H]1[C@H](O)[C@@H]2C[C@@H]2[C@H]1n1cnc2c(NCc3cn(C45CC6CC(CC(C6)C4)C5)nn3)nc(Cl)nc21 [Compound 224]
Ki [5, 11]: 2190 ± 160 nM | inhibition at 10 µM [8]: 38.6% | inhibition at 10 µM [6]: 22.5%
